The record followed here is patent publication US11154544B2, “Amide derivatives as Nav1.7 and Nav1.8 blockers” (RaQualia Pharma Inc., priority 2017, dated 2021).

As usually defined, the IC50 is the concentration needed to halve the response being measured.

What all share (format): cell-based
Assay [1] concerns the target human Nav1.8 channels (Homo sapiens (Human), UniProt Q9Y5Y9). Briefly: FRET assay (FDSS). Particulars: FRET, HEK293 cells expressing human Nav1.8; read-out: IC50 against Nav1.8. As to the method:
(§1) This screen is used to determine the effects of compounds on human Nav1.8, and human Nav1.5 channels, utilizing the cell imaging technology by Hamamatsu Photonics's Functional Drug Screening System (FDSS). The changes of membrane potential are monitored with fluorescent membrane potential dye pair, DiSBAC2(3) and CC2-DMPE, using FRET technology.
(§2) HEK293 cells expressing human Nav1.8 channels or human Nav1.5 channels are grown in T225 flasks, in a 5% CO2 humidified incubator to about 80% confluence. Media composition of HEK293 cells expressing human Nav1.8 channels consists of Dulbecco's Modified Eagle Medium (high glucose), 10% fetal calf serum (FCS), 100 units/mL Penicillin, 100 microgram/mL Streptomycin, 200 microgram/mL Zeocin and 500 microgram/mL Geneticine. HEK293 cells expressing human Nav1.5 channels are maintained in Dulbecco's Modified Eagle Medium (high glucose) supplemented with 10% fetal calf serum (FCS), 100 units/mL Penicillin, 100 microgram/mL Streptomycin and 500 microgram/mL Geneticine.
(§3) Seed each cell lines (1.5×10^4 cells/well) into 384-well plates prior to experimentation.
(§4) Incubate at 37° C. in 5% CO2 for 24 hours.
(§5) Wash each well with buffer #1 (140 mM NaCl, 4.5 mM KCl, 10 mM D-Glucose, 2 mM CaCl2, 1 mM MgCl2, 10 mM HEPES, pH 7.4 adjusted with. NaOH) twice using plate washer.
(§6) Add 1st loading solution containing 7.5 microM CC2-DMPE and 0.06% Pluronic F-127 in buffer #1.
(§7) Incubate the plate at rt in dark for 0.5 hours.
(§8) Wash each well with buffer #2 (160 mM Choline, 10 mM D-Glucose, 0.1 mM CaCl2, 1 mM MgCl2, 1.0 mM HEPES, pH 7.4 adjusted with KOH) twice using plate washer.
(§9) Add 2nd loading solution containing 75 microM DiSBAC2(3), 2.5 mM Xylene Fast Yellow, 10 microM Deltamethrin or 100 microM veratridine and 0.02% Pluronic F-127 in buffer #2.
(§10) Add compound solutions into the assay plate and leave the plate for 30 minutes under the dark at rt.
(§11) Monitor the fluorescent membrane potentials before and after the addition of buffer #2 by FDSS.
(§12) The data is analyzed and reported as normalized ratios of intensities measured in the 465 nm and 575 nm channels. The process of calculating these ratios is performed as follows: FR=(FI465Max/FI575Min)−(FI465B/FI575B) [Math.2]
(§13) “FI465B”=the mean of fluorescence intensity as baseline (before Na^+ ligand addition) at 465 nm
(§14) “FI575B”=the mean of fluorescence intensity as baseline (before Na^+ ligand addition) at 575 nm
(§15) “FI465Max”=maximum fluorescence intensity at 465 nm after Na^+ stimulation
(§16) “FI575Min”=minimum fluorescence intensity at 575 nm after Na^+ stimulation
(§17) This analysis is performed using a computerized specific program designed for FDSS generated data. Fluorescence ratio values are plotted using XLfit to determine an IC50 value for each compound.

The target in assay [2] is human Nav1.5 channels (Homo sapiens (Human), UniProt Q14524). Briefly: FRET assay (FDSS). Particulars: HEK293 cells expressing human Nav1.5, read-out: activity (IC50) against Nav1.5. As to the method: as §1, §2, §3, §4, §5, §6, §7, §8, §9, §10, §11, §12, §13, §14, §15, §16, §17
Chain of human Nav1.5 channels (Q14524 whole entry): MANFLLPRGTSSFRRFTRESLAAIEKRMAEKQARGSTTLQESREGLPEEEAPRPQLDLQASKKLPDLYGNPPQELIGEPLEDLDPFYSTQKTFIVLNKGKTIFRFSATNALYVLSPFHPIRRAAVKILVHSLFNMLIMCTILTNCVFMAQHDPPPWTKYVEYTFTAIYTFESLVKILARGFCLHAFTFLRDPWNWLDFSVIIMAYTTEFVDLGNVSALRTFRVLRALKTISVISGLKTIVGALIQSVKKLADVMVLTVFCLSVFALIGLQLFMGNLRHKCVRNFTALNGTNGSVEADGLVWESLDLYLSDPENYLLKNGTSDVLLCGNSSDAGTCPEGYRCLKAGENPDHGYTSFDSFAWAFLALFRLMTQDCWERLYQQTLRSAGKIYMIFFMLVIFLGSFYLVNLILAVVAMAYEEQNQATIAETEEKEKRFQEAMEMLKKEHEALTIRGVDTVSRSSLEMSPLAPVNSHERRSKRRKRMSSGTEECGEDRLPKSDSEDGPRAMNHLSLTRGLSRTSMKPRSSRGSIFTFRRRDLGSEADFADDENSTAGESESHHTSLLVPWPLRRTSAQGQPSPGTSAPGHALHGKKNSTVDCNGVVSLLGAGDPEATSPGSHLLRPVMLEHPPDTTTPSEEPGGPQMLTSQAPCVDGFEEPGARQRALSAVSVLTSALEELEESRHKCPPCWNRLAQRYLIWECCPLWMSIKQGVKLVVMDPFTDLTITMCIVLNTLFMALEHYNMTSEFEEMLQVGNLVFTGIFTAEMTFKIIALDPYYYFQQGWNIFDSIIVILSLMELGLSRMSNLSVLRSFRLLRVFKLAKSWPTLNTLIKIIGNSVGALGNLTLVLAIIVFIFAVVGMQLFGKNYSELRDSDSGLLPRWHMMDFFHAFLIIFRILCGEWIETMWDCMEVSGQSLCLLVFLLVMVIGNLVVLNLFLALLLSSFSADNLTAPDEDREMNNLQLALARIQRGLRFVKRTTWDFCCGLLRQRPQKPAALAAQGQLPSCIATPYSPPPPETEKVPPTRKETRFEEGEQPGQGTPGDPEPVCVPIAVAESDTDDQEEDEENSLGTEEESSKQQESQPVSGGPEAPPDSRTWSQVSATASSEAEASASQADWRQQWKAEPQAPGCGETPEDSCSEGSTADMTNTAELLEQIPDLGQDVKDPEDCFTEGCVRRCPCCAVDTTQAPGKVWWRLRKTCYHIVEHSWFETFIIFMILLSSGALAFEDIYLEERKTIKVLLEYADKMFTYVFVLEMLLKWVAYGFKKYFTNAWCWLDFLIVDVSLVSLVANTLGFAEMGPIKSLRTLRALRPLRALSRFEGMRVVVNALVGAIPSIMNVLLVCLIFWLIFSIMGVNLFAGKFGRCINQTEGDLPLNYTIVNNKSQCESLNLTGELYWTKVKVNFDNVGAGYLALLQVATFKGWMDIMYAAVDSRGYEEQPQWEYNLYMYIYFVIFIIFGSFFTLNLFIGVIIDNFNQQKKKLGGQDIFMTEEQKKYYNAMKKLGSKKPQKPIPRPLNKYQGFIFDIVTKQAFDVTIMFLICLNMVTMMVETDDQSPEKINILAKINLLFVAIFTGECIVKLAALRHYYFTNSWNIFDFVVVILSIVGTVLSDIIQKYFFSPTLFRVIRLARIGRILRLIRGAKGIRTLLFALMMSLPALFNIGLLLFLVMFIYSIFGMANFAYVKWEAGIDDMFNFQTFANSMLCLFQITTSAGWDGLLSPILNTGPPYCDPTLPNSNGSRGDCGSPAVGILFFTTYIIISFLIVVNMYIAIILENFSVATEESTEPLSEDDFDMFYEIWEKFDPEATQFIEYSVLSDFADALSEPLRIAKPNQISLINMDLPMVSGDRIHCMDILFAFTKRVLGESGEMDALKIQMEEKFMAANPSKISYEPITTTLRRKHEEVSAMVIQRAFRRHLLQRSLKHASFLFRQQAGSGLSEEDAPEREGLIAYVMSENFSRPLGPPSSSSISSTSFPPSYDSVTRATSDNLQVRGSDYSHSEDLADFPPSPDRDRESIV
Assay [3] has as its target T1, Nav1.7 (Homo sapiens (Human), UniProt Q15858). Briefly: EFS-FRET assay. The settings on record: EFS-FRET, CHO cells expressing human Nav1.7; read-out: IC50 against Nav1.7. As to the method: This screen is used to determine the effects of compounds on human Nav1.7 channels, utilizing electrical field stimulation (EFS) system in 96-well plate format on FDSS (Hamamatsu Photonics) platform. The change of membrane potential is monitored with FRET dye pair, DiSBAC2(3) and PTS 18.
CHO (Chinese hamster ovary) cells expressing human Nav1.7 channels are grown in T225 flasks, in a 5% CO2 humidified incubator to about 80% confluence. Media composition consists of HAM/F^.12 with Glutamax I, 10% FCS, 100 units/mL penicillin and 100 microgram/mL hygromycin.
Seed each cell lines (1×10^5 cells/well) into 96-well plates prior to experimentation.
Incubate at 37° C. in 5% CO2, for 24 hours.
Wash each well with assay buffer (140 mM NaCl, […], 10 mM D-Glucose, 2 mM CaCl2, 1 mM MgCl2, 10 mM HEPES, pH 7.4 adjusted with NaOH) twice.
Add 1st loading solution containing 10 microM PTS18 and 0.06% Pluronic F-127 in assay buffer.
Incubate the plate at rt in dark for 1 hour. • Remove 1st loading solution and add 2nd loading solution containing 12.5 microM DiSBAC2(3), 1.25 mM Xylene Fast Yellow and 0.0075% Pluronic F-127 in assay buffer. • Place the plate under the dark at rt for 25 minutes. • Add compound solutions into the assay plate. • Set the assay plate in FDSS and place an EFS device on the plate. • Measure EFS-induced fluorescent response by FDSS.
The data are analyzed and reported as normalized ratios of intensities measured at […]. The process of calculating these ratios is performed as follows:
This analysis is performed using a computerized specific program designed for
FDSS generated data. Fluorescence ratio values are plotted using XLfit to determine an IC50 value for each, compound.

The target in assay [4] is T1, Nav1.7. Nature of the assay: Electrophysiology assay, whole cell patch clamp, affinity to inactivated state. Particulars: read-out: activities (Ki) against Nav1.7. As to the method: Whole cell patch clamp recording is used to assess the efficacy or selectivity of Na channel blocker on human voltage gated sodium channels. Na channel expressing cells are dissociated by 0.05% Trypsine-EDTA or Accutase, and then seeded on cover glass for 2-24 hrs.
Manual patch clamp recordings are conducted at rt using the voltage-clamp amplifier (Axon Instruments or HEKA electronik). Electrodes are pulled with P-97 electrode puller (Sutter Instrument). The electrode resistances are 1-3 MOhm when intracellular solution is filled. Currents are lowpass filtered between 2-5 kHz and digitally sampled at 10 kHz.
The extracellular and intercellular solutions for human Nav1.7 and Nav1.5 consist of the following composition: […]
The normalized steady-state inactivation curve is constructed using 2 sec (for vehicle) or 60 sec (for drugs) conditioning pulse to different potentials followed immediately by the test pulse to −10 mV. […] The affinity of test compound to resting state of Na channels (Kresting or Kr) is assessed by depolarizing test pulse from a negative holding potential of −130 mV, where virtually all channels are in the resting state. Kr value is calculated by a conventional 1:1 binding model: Kresting(Kr)={[drug]Imax,drug/(Imax, control−Imax, drug)} [Math.8] • where Kresting (=Kr) is a dissociation constant for the resting state and [drug] is compound concentration. […]

T1 sequence (Q15858 whole entry): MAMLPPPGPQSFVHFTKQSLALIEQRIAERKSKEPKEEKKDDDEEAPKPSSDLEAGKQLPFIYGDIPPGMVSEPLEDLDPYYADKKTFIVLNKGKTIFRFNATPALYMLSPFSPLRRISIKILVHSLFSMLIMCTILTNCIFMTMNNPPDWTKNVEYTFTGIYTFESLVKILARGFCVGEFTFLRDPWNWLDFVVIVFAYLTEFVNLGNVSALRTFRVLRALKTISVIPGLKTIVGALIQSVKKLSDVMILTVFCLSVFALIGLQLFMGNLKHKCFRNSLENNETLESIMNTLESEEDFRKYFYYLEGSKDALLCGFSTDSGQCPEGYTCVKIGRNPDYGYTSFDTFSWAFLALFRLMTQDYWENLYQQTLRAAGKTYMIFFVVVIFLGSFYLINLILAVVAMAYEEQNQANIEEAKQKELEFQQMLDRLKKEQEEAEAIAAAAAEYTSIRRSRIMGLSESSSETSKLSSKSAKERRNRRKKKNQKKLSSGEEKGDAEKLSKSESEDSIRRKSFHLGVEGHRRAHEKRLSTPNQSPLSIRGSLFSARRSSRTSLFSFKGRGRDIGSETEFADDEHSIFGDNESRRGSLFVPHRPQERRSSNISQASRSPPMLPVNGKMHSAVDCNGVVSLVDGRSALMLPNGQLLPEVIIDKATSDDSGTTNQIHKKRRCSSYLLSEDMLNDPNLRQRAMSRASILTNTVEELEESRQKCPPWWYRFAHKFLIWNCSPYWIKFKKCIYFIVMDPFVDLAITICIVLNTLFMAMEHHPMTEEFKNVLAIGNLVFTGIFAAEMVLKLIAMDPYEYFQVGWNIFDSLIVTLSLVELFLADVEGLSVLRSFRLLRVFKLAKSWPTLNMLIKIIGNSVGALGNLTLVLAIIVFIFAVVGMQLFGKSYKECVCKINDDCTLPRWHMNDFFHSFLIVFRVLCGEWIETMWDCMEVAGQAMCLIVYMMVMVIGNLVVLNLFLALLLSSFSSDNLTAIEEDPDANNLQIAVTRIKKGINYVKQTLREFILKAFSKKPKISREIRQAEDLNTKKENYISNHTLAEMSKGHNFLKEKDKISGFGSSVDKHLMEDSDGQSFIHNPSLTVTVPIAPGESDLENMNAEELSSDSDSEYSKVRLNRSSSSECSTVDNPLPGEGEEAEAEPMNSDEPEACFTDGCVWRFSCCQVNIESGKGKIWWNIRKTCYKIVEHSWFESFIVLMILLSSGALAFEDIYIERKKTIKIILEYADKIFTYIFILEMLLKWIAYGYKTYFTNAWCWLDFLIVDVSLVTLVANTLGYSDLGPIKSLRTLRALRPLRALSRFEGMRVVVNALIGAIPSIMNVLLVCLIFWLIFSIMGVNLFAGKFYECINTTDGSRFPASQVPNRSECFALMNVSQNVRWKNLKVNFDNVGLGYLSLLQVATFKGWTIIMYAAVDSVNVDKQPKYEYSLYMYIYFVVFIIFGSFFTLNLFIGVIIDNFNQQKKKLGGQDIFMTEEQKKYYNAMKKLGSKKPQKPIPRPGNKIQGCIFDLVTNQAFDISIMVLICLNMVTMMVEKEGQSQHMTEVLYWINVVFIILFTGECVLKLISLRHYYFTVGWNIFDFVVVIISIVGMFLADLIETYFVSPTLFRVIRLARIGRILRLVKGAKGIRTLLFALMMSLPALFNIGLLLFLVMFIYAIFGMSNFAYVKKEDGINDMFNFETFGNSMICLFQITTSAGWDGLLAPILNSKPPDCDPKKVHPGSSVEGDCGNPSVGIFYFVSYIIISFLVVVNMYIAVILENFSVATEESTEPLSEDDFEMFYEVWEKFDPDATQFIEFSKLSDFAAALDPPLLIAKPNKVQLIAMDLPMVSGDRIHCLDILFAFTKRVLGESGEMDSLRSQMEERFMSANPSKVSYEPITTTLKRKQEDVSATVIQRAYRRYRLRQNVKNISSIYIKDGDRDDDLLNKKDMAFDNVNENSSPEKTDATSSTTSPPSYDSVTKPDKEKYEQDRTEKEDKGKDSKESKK

Take `CC(CNC(=O)c1ccnc(NC(=O)C2CC2)c1)Oc1ccc(C(F)(F)F)cc1` (stereo not drawn) [Example 1, 2-(cyclopropanecarboxamido)-N-(2-(4-(trifluoromethyl)phenoxy)propyl)isonicotinamide]: the IC50 was 650 nM in assay [1] and above 30000 nM in assay [2].
For the compound `CCC(=O)Nc1cc(C(=O)NCCNc2ncc(C(F)(F)F)cc2Cl)ccn1` [Example 3], the IC50 in assay [3] is below 500 nM. Besides, in assay [4], the Ki was found to be 960 nM.
Turning to `CC(=O)Nc1cc(C(=O)NCCNc2ncc(C(F)(F)F)cc2Cl)cc(C)n1` [Example 4], the 50% inhibitory concentration (IC50) in assay [3] was below 500 nM. Further, the Ki in assay [4] came out at 520 nM.
